Values joined by “and” are separate entries in the source; they are usually repeats but may differ in a detail not shown here. Equal entries are not always repeated. Toxic doses and inconclusive results are not listed. No stated cut-off is given here; in the data, active means T/C of 150% or more; inactive means T/C below 125%.
System: L1210 leukemia ip in BDF1 mice, survival T/C
Test: NCI In Vivo Anticancer Drug Screen. Data for tumor model L1210 Leukemia (intraperitoneal) in B6D2F1 (BDF1) mice
Settings: endpoint: mean survival time, higher = longer survival
In short: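 In this screen, tumor-bearing mice given compound are compared to those given vehicle, and their survival values are reported as a treated-to-control quotient.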

[1] = dose: 200.0 mg/kg/injection, schedule: Q04DX003 (ip), vehicle: saline
[2] = dose: 400.0 mg/kg/injection, schedule: Q04DX003 (ip), vehicle: saline
[3] = dose: 100.0 mg/kg/injection, schedule: Q01DX001 (ip), vehicle: carboxymethylcellulose (CMC)
[4] = dose: 200.0 mg/kg/injection, schedule: Q01DX001 (ip), vehicle: carboxymethylcellulose (CMC)
[5] = dose: 400.0 mg/kg/injection, schedule: Q01DX001 (ip), vehicle: carboxymethylcellulose (CMC)
[6] = dose: 100.0 mg/kg/injection, schedule: Q01DX009 (ip), vehicle: Klucel (hydroxypropylcellulose) (HPC)
[7] = dose: 100.0 mg/kg/injection, schedule: Q04DX003 (ip), vehicle: Klucel (hydroxypropylcellulose) (HPC)
[8] = dose: 200.0 mg/kg/injection, schedule: Q01DX009 (ip), vehicle: Klucel (hydroxypropylcellulose) (HPC)
[9] = dose: 200.0 mg/kg/injection, schedule: Q04DX003 (ip), vehicle: Klucel (hydroxypropylcellulose) (HPC)
[10] = dose: 400.0 mg/kg/injection, schedule: Q01DX009 (ip), vehicle: Klucel (hydroxypropylcellulose) (HPC)
[11] = dose: 400.0 mg/kg/injection, schedule: Q04DX003 (ip), vehicle: Klucel (hydroxypropylcellulose) (HPC)
[12] = dose: 25.0 mg/kg/injection, schedule: Q04DX003 (ip), vehicle: Klucel (hydroxypropylcellulose) (HPC)
[13] = dose: 100.0 mg/kg/injection, schedule: Q01DX001 (ip), vehicle: saline
[14] = dose: 200.0 mg/kg/injection, schedule: Q01DX001 (ip), vehicle: saline
[15] = dose: 400.0 mg/kg/injection, schedule: Q01DX001 (ip), vehicle: saline
[16] = dose: 100.0 mg/kg/injection, schedule: Q04DX003 (ip), vehicle: acetone
[17] = dose: 200.0 mg/kg/injection, schedule: Q04DX003 (ip), vehicle: acetone
[18] = dose: 400.0 mg/kg/injection, schedule: Q04DX003 (ip), vehicle: acetone

Measured: T/C

Cc1nnc(N)s1
inactive: dose: 100.0 mg/kg/injection, schedule: Q01DX001 (ip), vehicle: other 102 % of control | dose: 100.0 mg/kg/injection, schedule: Q01DX009 (ip), vehicle: saline with Tween-80 95 % of control | dose: 100.0 mg/kg/injection, schedule: Q04DX003 (ip), vehicle: other 104 % of control | dose: 200.0 mg/kg/injection, schedule: Q01DX001 (ip), vehicle: other 102 % of control | dose: 200.0 mg/kg/injection, schedule: Q01DX009 (ip), vehicle: saline with Tween-80 92 % of control | dose: 200.0 mg/kg/injection, schedule: Q04DX003 (ip), vehicle: other 95 % of control | dose: 400.0 mg/kg/injection, schedule: Q01DX001 (ip), vehicle: other 100 % of control | dose: 400.0 mg/kg/injection, schedule: Q01DX009 (ip), vehicle: saline with Tween-80 93 % of control | dose: 400.0 mg/kg/injection, schedule: Q04DX003 (ip), vehicle: other 98 % of control

OC1C2c3ccccc3C(c3ccccc32)C1O (stereo unspecified)
inactive: dose: 75.0 mg/kg/injection, schedule: Q01DX001 (ip), vehicle: saline 107 % of control | dose: 150.0 mg/kg/injection, schedule: Q01DX001 (ip), vehicle: saline 93 % of control | dose: 300.0 mg/kg/injection, schedule: Q01DX001 (ip), vehicle: saline 99 % of control

CCCC/C=C\C=C\CCCC
inactive: dose: 100.0 mg/kg/injection, schedule: Q04DX003 (ip), vehicle: saline 95 % of control | [1] 103 % of control | [2] 97 % of control

COc1ccc2c(c1)CCCCC2=O
inactive: dose: 50.0 mg/kg/injection, schedule: Q01DX001 (ip), vehicle: carboxymethylcellulose (CMC) 105 % of control | [3] 102 % of control | [4] 100 % of control | [5] 102 % of control

O=C(Nc1cccc(C(F)(F)F)c1)N(CCO)Cc1ccccc1
inactive: dose: 100.0 mg/kg/injection, schedule: Q01DX001 (ip), vehicle: Klucel (hydroxypropylcellulose) (HPC) 104 % of control | [6] 100 % of control and 109 % of control | [7] 103 % of control | dose: 200.0 mg/kg/injection, schedule: Q01DX001 (ip), vehicle: Klucel (hydroxypropylcellulose) (HPC) 105 % of control | [8] 100 % of control and 114 % of control | [9] 99 % of control | dose: 400.0 mg/kg/injection, schedule: Q01DX001 (ip), vehicle: Klucel (hydroxypropylcellulose) (HPC) 102 % of control | [10] 93 % of control and 107 % of control | [11] 95 % of control

O=S(=O)(Nc1ccc2ccccc2c1)c1ccc2ccccc2c1
inactive: [7] 91 % of control | [9] 90 % of control | [11] 91 % of control

CCOC(=O)c1cnc(SC)nc1Nc1ccccc1C
inactive: [6] 96 % of control | [7] 97 % of control | [8] 93 % of control | [9] 98 % of control | [10] 91 % of control | [11] 98 % of control

C=CC=O
inactive: dose: 3.0 mg/kg/injection, schedule: Q01DX009 (ip), vehicle: saline 96 % of control | dose: 3.12 mg/kg/injection, schedule: Q01DX009 (ip), vehicle: saline 98 % of control | dose: 3.12 mg/kg/injection, schedule: Q04DX003 (ip), vehicle: saline 91 % of control | dose: 6.0 mg/kg/injection, schedule: Q01DX009 (ip), vehicle: saline 102 % of control | dose: 6.25 mg/kg/injection, schedule: Q01DX009 (ip), vehicle: saline 90 % of control | dose: 6.25 mg/kg/injection, schedule: Q04DX003 (ip), vehicle: saline 97 % of control | dose: 7.5 mg/kg/injection, schedule: Q04DX003 (ip), vehicle: saline 88 % of control | dose: 12.0 mg/kg/injection, schedule: Q01DX009 (ip), vehicle: saline 102 % of control | dose: 12.0 mg/kg/injection, schedule: Q04DX003 (ip), vehicle: Klucel (hydroxypropylcellulose) (HPC) 98 % of control | dose: 12.5 mg/kg/injection, schedule: Q04DX003 (ip), vehicle: saline 89 % of control | [12] 101 % of control | [13] 117 % of control | [14] 109 % of control | [15] 98 % of control

c1ccc(N=Nc2ccncc2)cc1
inactive: dose: 6.25 mg/kg/injection, schedule: Q04DX003 (ip), vehicle: saline with Tween-80 101 % of control | dose: 12.5 mg/kg/injection, schedule: Q04DX003 (ip), vehicle: saline with Tween-80 92 % of control | dose: 25.0 mg/kg/injection, schedule: Q04DX003 (ip), vehicle: saline with Tween-80 97 % of control

COc1c2ccoc2cc2oc(C)cc(=O)c12
inactive: dose: 37.5 mg/kg/injection, schedule: Q01DX001 (ip), vehicle: carboxymethylcellulose (CMC) 103 % of control | dose: 75.0 mg/kg/injection, schedule: Q01DX001 (ip), vehicle: carboxymethylcellulose (CMC) 100 % of control | dose: 150.0 mg/kg/injection, schedule: Q01DX001 (ip), vehicle: carboxymethylcellulose (CMC) 108 % of control

O=C(N/C=C/NC(=O)Oc1c(I)cc(I)cc1I)Oc1c(I)cc(I)cc1I
inactive: [6] 92 % of control | [8] 100 % of control | [10] 102 % of control

Cc1c(O)cccc1N(C)C
inactive: [13] 112 % of control | [16] 111 % of control | [14] 105 % of control | [17] 106 % of control | [1] 88 % of control | [15] 91 % of control | [18] 102 % of control | [2] 90 % of control

O=[As](O)(O)c1ccc(Cl)cc1C(F)(F)F
inactive: dose: 6.25 mg/kg/injection, schedule: Q04DX003 (ip), vehicle: Klucel (hydroxypropylcellulose) (HPC) 97 % of control | dose: 12.5 mg/kg/injection, schedule: Q04DX003 (ip), vehicle: Klucel (hydroxypropylcellulose) (HPC) 100 % of control | [12] 101 % of control and 103 % of control | [7] 101 % of control | [9] 103 % of control

CCCCCC[Se][Se]CCCCCC
inactive: dose: 6.25 mg/kg/injection, schedule: Q01DX009 (ip), vehicle: Klucel (hydroxypropylcellulose) (HPC) 96 % of control | dose: 12.5 mg/kg/injection, schedule: Q01DX009 (ip), vehicle: Klucel (hydroxypropylcellulose) (HPC) 96 % of control | dose: 25.0 mg/kg/injection, schedule: Q01DX009 (ip), vehicle: Klucel (hydroxypropylcellulose) (HPC) 91 % of control | [12] 90 % of control | dose: 50.0 mg/kg/injection, schedule: Q04DX003 (ip), vehicle: Klucel (hydroxypropylcellulose) (HPC) 103 % of control and 107 % of control

O=C(Nc1cccc(O)c1)Nc1cccc(C(F)(F)F)c1
inactive: [3] 92 % of control and 101 % of control | dose: 100.0 mg/kg/injection, schedule: Q01DX009 (ip), vehicle: carboxymethylcellulose (CMC) 94 % of control and 96 % of control | dose: 100.0 mg/kg/injection, schedule: Q04DX002 (ip), vehicle: carboxymethylcellulose (CMC) 92 % of control and 93 % of control | dose: 100.0 mg/kg/injection, schedule: Q04DX003 (ip), vehicle: carboxymethylcellulose (CMC) 95 % of control and 100 % of control | [4] 96 % of control and 87 % of control | dose: 200.0 mg/kg/injection, schedule: Q01DX009 (ip), vehicle: carboxymethylcellulose (CMC) 94 % of control and 100 % of control | dose: 200.0 mg/kg/injection, schedule: Q04DX002 (ip), vehicle: carboxymethylcellulose (CMC) 92 % of control and 86 % of control | dose: 200.0 mg/kg/injection, schedule: Q04DX003 (ip), vehicle: carboxymethylcellulose (CMC) 92 % of control and 91 % of control | [5] 92 % of control and 93 % of control | dose: 400.0 mg/kg/injection, schedule: Q01DX009 (ip), vehicle: carboxymethylcellulose (CMC) 100 % of control and 91 % of control | dose: 400.0 mg/kg/injection, schedule: Q04DX002 (ip), vehicle: carboxymethylcellulose (CMC) 95 % of control and 100 % of control | dose: 400.0 mg/kg/injection, schedule: Q04DX003 (ip), vehicle: carboxymethylcellulose (CMC) 87 % of control and 91 % of control

O=C(Nc1ccc(F)cc1)NN1CCOCC1
inactive: dose: 50.0 mg/kg/injection, schedule: Q01DX009 (ip), vehicle: Klucel (hydroxypropylcellulose) (HPC) 104 % of control | [6] 90 % of control | [8] 97 % of control

CCOc1c(CNC(=O)CCl)cc(N)cc1CNC(=O)CCl
inactive: dose: 50.0 mg/kg/injection, schedule: Q01DX001 (ip), vehicle: saline 106 % of control | [13] 111 % of control

Cc1ccc(S(=O)(=O)c2ccccc2C)s1
inactive: [13] 97 % of control | [16] 94 % of control | [14] 98 % of control | [17] 98 % of control | [15] 93 % of control | [18] 94 % of control
